The subject of one data set is Gbe1^neo/− MEF. The experiment in a line: High throughput PAS-fluorescence screen of polyglucosan bodies in GBE-deficient MEF. In kind it is cell-based, mouse. The procedure:
Skin fibroblasts from wild type or Gbe1^neo/− E17.5 embryos were cultured to establish the MEF cell line by methods known in the art (FIG. 2). Diastase-resistant PAS positive staining was used specifically for carbohydrate staining. After paraformaldehyde fixation, cells were washed with PBS and normal glycogen was degraded by alpha-amylase digestion. The residual polysaccharides and PG in MEF were treated with periodic acid to oxidize sugars to aldehydes, which react with the Schiff reagent and stain pink. Although PAS staining was very efficient to detect PG (see FIGS. 2A, 2B, 2C, 2E, and 2G), the IN Cell 2000 cell detection system relies on fluorescence staining. PAS staining itself is fluorescent due to pararosanilin reagents, such as Rhodamine and TRITC, which can be excited (400 nm) and emits light detectable in red range ([…]) (FIGS. 2D, 2F and 2H).
To set up the automated detection system, control Gbe1^+/+ and Gbe1^neo/− MEFs were plated at different density on 384-well plates in order to obtain optimal cell density. A second important optimization regarded the diastase digestion of normal glycogen, keeping in mind that PGBs are resistant to diastase digestion and longer incubation times and/or higher enzyme concentrations are needed to digest PG. […] After diastase digestion, they were stained with PAS, and, after brief nuclear staining with Hoechst, the plates were analyzed by IN Cell 2000, GE Healthcare (Piscataway, N.J.), a high-throughput imaging system capable of performing high-content analysis using a wide array of micro plates. […] Automated quantitative results were obtained in terms of relative fluorescence per cell. Relative fluorescence per positive cells were analyzed and its significance were determined by z score according to plate average or by B score if there is a positional effect related to row and column that occurs in multi well plate cell cultures (Brideau et al. 2003). […]
1500 cells were plated per well to 384-well plates. […] The following day the cells were stained and analyzed as set forth in Example 3.

The test system of another data set is MEF. The data set is described as follows: Glycogen content of MEF grown in cobalt supplemented media. In kind it is cell-based, mouse. The settings on record: n=3, FIG. 3B. On the procedure: FIGS. 3A-3C show guaiacol decreases glycogen synthesis. […] FIG. 3C is a graph showing the results of relative glycogen content of cells grown in cobalt supplemented media after 3 days of guaiacol treatment at concentrations indicated on horizontal axis.
(§1) One hit was obtained corresponding to a compound that decreased polyglucosan synthesis more than 50% at 6.75 μM concentration (FIG. 3). […] This compound identified was guaiacol and has been used as an expectorant and flavoring food additive but is no longer being marketed for medical purposes.

For data set [1], the system named is HepG2 liver epithelial cell line. The experiment in a line: Glycogen content in HepG2 cells cultured with cobalt chloride. Format: cell-based. The note with it: DMEM supplemented with 150 μM cobalt chloride; results not shown. The procedure:
as §1

Another data set concerns GYS1. The experiment in a line: Western blot of GYS1 phosphorylation in muscle extracts after oral guaiacol. In kind it is in vivo, mouse. The note with it: wild type mice, 45-720 mg/kg oral gavage, muscle extracts two hours after administration. From the text: FIG. 4 is a Western blot of GYS1 and GAPDH in muscle extracts obtained from wild type mice two hours after administration with guaiacol, suspended in water, in the indicated dosage amounts on the top panel by oral gavage.
Glycogen synthase is an allosteric enzyme that can be activated by glucose 6 phosphate or inactivated by phosphorylation of a serine residue on the enzyme. Thus, the phosphorylation status of GYS1 in muscle extracts which is the indicator of glycogen synthase activity was determined.
Wild type mice were administered guaiacol suspended in water at concentrations of 45, 90, 180, 360, and 720 mg/kg. Two hours after administration, muscle extracts were obtained and Western blot analysis of GYS1 was performed.
(In general: Immunoblotting shows a protein as a band on a membrane.)

For data set [2], the system named is Gbe1^ys/ys mice. The experiment in a line: Tissue glycogen content in treated wild type and Gbe1^ys/ys mice. Format: in vivo, mouse. The procedure: FIG. 5 is a graph depicting the results of heart, brain, muscle and liver glycogen content in wild type and Gbe1^ys/ys mice, and guaiacol-treated wild-type and Gbe1^ys/ys mice. Glycogen was measured after a 16 hour fast (n=4 for each treatment). Glycogen content is expressed as percent glucose mg/gram fresh tissue. Error bars represent the mean±SD, P<0.001 where indicated (*).
A mouse model of GBE deficiency created by knocking in via homologous recombination the most common human GBE1 mutation (p.Y329S) found in Ashkenazi Jewish patients has been developed by the inventors and designated Gbe1^ys/ys (Akman et al. 2015).
After one month of treatment, four mice from each group (untreated wild type and Gbe1^ys/ys mice and guaiacol-treated wild type and Gbe1^ys/ys mice) were sacrificed and tissue glycogen contents were measured as described by Pederson et al. 2004.

Data set [3] can be described thus: Glucose tolerance test (blood glucose). The settings on record: after overnight fasting and glucose injection. Format: in vivo, mouse. On the procedure:
Blood glucose content was measured at times indicated in guaiacol-treated and untreated wild type and APBD (p.Y329s) mice. n=3 in each group.
After overnight fasting, mice were injected glucose and the blood glucose levels were measured.

Data set [4] has as its system AMP kinase alpha (AMPK-α). The data set is described as follows: Western blot of AMP kinase Thr 172 phosphorylation. The note with it: tissue extracts of treated wild type and Gbe1^ys/ys mice, relative to total AMPK-α. In kind it is in vivo, mouse. From the text: FIG. 7 is a Western blot of phospho AMPK-α and total AMPK in muscle extracts obtained from wild type and Gbe1^ys/ys mice, and guaiacol-treated wild type and Gbe1^ys/ys mice.
Glycogen synthesis and breakdown is regulated according to the energy state of the cell. When glucose is abundant amount of ATP is high and AMP kinase remains un-phosphorylated. However when glucose concentrations go down so do the ATP levels because it is being converted to ADP and AMP.

Data set [5] can be described thus: HPLC of AMP, ADP, ATP and adenosine in muscle extracts. Format: in vivo, mouse. The settings on record: for decrease in adenosine levels: muscle. From the text: FIG. 8 is a graph depicting results of high performance liquid chromatography analysis of adenosine in muscle of wild type and Gbe1^ys/ys mice, and guaiacol-treated wild type and Gbe1^ys/ys mice.
[…], the heterotrimeric protein AMPK is formed by α, β, and γ subunits. Each of these three subunits takes on a specific role in both the stability and activity of AMPK. (Stapleton et al. 1996). Specifically, the γ subunit includes four particular cystathionine beta synthase (CBS) domains giving AMPK its ability to sensitively detect shifts in the AMP: ATP ratio. The four CBS domains create two binding sites for AMP commonly referred to as Bateman domains. Binding of one AMP to a Bateman domain cooperatively increases the binding affinity of the second AMP to the other Bateman domain (Akman et al. 2007).

Data set [6] concerns Gbe1^ys/ys mice. The data set is described as follows: Lifespan and disease signs of Gbe1^ys/ys mice on guaiacol in drinking water. Format: in vivo, mouse. On the procedure: FIG. 9 is a Kaplan-Meier plot which illustrates the incidence of death in Gbe1^ys/ys (n=47), versus wild type mice (n=29), and guaiacol-treated Gbe1^ys/ys and wild type mice (n=4 each).
(§2) Mice were treated with guaiacol in drinking water for 12 months every other day by preparing fresh guaiacol solution in water (3.8 g/liter or 3.1 ml/liter) considering the fact that an adult mouse drinks 6 ml water every day (Bachamov et al. 2002).
Treated Gbe1^ys/ys mice lived up to 24 months at time they were sacrificed as required by the protocol (FIG. 9).

Data set [7] is described as follows: Tolerability: grip tests and weight gain or loss. The settings on record: 22.5 mg/kg in drinking water. Format: in vivo, mouse. On the procedure:
as §2

Where [8] appears, read: one month of treatment, 16 hour fast, n=4.
The mark [9] stands for this setting: treated Gbe1^ys/ys mice, long-term treatment.

The text below walks through data of patent US10933031B2, “Use of guaiacol for the prevention and treatment of glycogen storage disease” (THE TRUSTEES OF COLUMBIA UNIVERSITY IN THE CITY OF NEW YORK, priority 2016, dated 2021).

“Also recorded” adds a separate entry of the source.

For the molecule `COc1ccccc1O` [guaiacol], in the data set on Gbe1^neo/− MEF (6.75 μM, three days treatment, JHCCL screen), the “decrease of polyglucosan synthesis” value was “more than 50%”. Moreover, the “PAS stained granules in the cytosol (diastase treated)” value with Gbe1^neo/− MEF (10 μM guaiacol, MEF cultures, FIG. 3A) is listed as “decreased PAS stained granules”. The “decrease of polyglucosan synthesis and accumulation” value with Gbe1^neo/− MEF (JHCCL screen, concentration not stated) came to 50%. In addition, in the data set with MEF, the “glycogen content in MEF” value was “decrease of glycogen content”. Besides, the “glycogen content in HepG2” value in data set [1] is recorded as “decreased glycogen content”. The “phosphorylation of GYS1 compared to total GYS1 protein” value in the data set with GYS1 is given as “increased”. Further, the “glycogen in brain, muscle and heart” value in the data set with Gbe1^ys/ys mice [2] (as restated in Example 7) is “increased”. For the same molecule, the “glycogen content in the brain and muscle compared to untreated Gbe1^ys/ys mice” value in the data set on Gbe1^ys/ys mice [2] (later treatments, treated Gbe1^ys/ys mice) was “slight increase”. Also, in the data set with Gbe1^ys/ys mice [2] (setting [8]), the “glycogen content in brain heart and muscle” value is given as “did not change”; the “glycogen content of the liver” value is on record as “significant decrease; also recorded: decreased”. Besides, the “duration of high blood glucose versus control mice” value in [3] is recorded as “remained high longer”. For the same molecule, the “blood glucose level versus control mice” value in data set [3] (wild type and APBD (p.Y329s) mice, n=3) is “higher blood glucose; also recorded: increases blood glucose concentration”. Besides, the “Thr 172 phosphorylation of AMP kinase” value in data set [4] is given as “increased Thr 172 phosphorylation”. Besides, in [5] (muscle extracts, treated vs untreated wild type or Gbe1^ys/ys mice), the “AMP, ADP and ATP levels” value is reported as “no significant difference”. Moreover, the “decrease in adenosine levels” value in [5] (Gbe1^ys/ys mice, n=4, p<0.03) is listed as 48%. Also, the “decrease in adenosine levels” value in [5] (wild-type mice, n=4, p<0.02) is given as 53%. Moreover, the “lifespan of treated mice” value with Gbe1^ys/ys mice [6] (Gbe1^ys/ys mice, guaiacol in drinking water, sacrificed at 24 months as required by protocol) is “up to 24 months”. Further, in the data set with Gbe1^ys/ys mice [6] (treated Gbe1^ys/ys mice), the “gait of treated mice” value was “spastic gait” and the “penile prolapse in male mice” value is “did not have penile prolapse; also recorded: preventing penile prolapse”. In the data set with Gbe1^ys/ys mice [6] (setting [9]), the “PG content in the liver” value is given as “decreased PG content”; the “polyglucosan in the muscle brain and heart” value is “slightly higher polyglucosan”. Moreover, in data set [7], the “effect on animal behavior (grip tests, weight gain or loss)” value was “did not adversely affect the animal's behavior”.
